Test [1] addresses human MLKL (full length) (Homo sapiens (Human), UniProt Q8NB16). Nature of the test: KINOMEscan binding assay, human MLKL (full length). The settings on record: equilibrium dissociation constant. A digest of the protocol:
(§1)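 Binding constants were derived by fitting qPCR-quantified bead-retained kinase against compound concentration to the Hill equation, slope set at −1. Compound series were 3-fold over 11 points with 1% DMSO; most top concentrations were 30,000 nM. Kinases were T7-phage-tagged or HEK-293-produced with DNA tags.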

The target of test [2] is human RIPK3 (Homo sapiens (Human), UniProt Q9Y572). Nature of the test: KINOMEscan binding assay, human RIPK3. The following applies: equilibrium dissociation constant. A digest of the protocol: as §1
human RIPK3, sequence (Q9Y572 whole entry): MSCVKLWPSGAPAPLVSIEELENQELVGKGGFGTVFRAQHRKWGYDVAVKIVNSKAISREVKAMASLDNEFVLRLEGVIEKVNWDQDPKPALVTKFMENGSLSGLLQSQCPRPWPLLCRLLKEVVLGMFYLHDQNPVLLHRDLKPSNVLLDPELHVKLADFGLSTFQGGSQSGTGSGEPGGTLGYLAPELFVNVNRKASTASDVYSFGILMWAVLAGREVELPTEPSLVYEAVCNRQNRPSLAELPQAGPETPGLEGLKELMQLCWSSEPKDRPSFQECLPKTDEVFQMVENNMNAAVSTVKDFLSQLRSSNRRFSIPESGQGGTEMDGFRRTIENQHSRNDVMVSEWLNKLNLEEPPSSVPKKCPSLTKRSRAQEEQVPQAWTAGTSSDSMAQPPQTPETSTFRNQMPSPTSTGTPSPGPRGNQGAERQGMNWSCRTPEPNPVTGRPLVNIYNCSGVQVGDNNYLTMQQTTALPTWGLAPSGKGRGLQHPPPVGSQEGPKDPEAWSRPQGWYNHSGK
Test [3] has as its system U937 cells. In words: Counter screen: U937 cell viability without TSQ cocktail (off-target effect). Further details: species or system human. The following applies: Homo sapiens, U-937, compound without TSQ cocktail, read-out: Off-target effect (IC50 cell-based assay). On the procedure:
(§2) • Cell Line ID: U937 human histiocytic leukemia cell line. • Cell Concentration (cells/well): Final cell density is 20000 cells per well. • Cell growth medium: HT-RPMI medium+7.4% Fetal Bovine Serum (FBS). Cells are cultured in Corning 150 cm^2 tissue culture flasks with vented caps at 37° C./5% CO2. • Incubation: Plates were incubated at 37° C./5% CO2 in a humidified incubator for 48 hours following addition of compounds and death stimuli (TSQ cocktail). • Compound concentration: 36 μM starting concentration, 1:3 dilution, 10 point • DMSO final concentration (% v/v): 0.3%. Compounds in TSQ Cocktail (T: TNF; S: Smac Mimetic; Q: Q-VD-OPh) and their Final Concentrations: • hTNF-Fc (100 ng/ml)—produced by standard procedures as shown in Bossen et al., J. Biol. Chem., 2006, 281(20), 13964-13971. • Compound A (500 nM) —Smac mimetic, Tetralogic and SYNthesis med chem • Q-VD-OPh (10 μM) —MP Biomedicals
(§3) The cellular assay was carried out according to the following steps: • 1. Each well was prepared by sequential addition of: • a. DMSO (control; columns 1-2 and 23-24) or compound in DMSO—addition was performed using acoustic transfer of nL volumes of stock compound to give final test concentrations of 36, 12, 4, 1.3, 0.44, 0.148, 0.049, 0.016, 0.005 and 0.002 μM. All wells were backfilled with DMSO to a final total volume in the well of 100 nL. • b. Following compound/DMSO addition in step (a), 40 μL of cell suspension (5×10^5 cells/mL) was added to provide a final cell concentration of 20,000 cells per well, and • c. Following cell addition in step (b), 10 μL of 5×TSQ cocktail (except to positive controls; columns 1 and 23) was added to each well. • 2. After 48 hours, plate was removed from the 37° C. incubator and equilibrated to room temperature for 45 minutes. • 3. 15 μL of room temperature CellTitre-Glo2™ (Promega™) was added to each well. • 4. Shook plates for 2 minutes (˜600 rpm) and incubated at room temperature for 15 minutes to allow signal to stabilise. • 5. Read luminescence readout on a plate reader.
(§4) 10 point titration curves were fitted with the 4 parameter logistic nonlinear regression model and the IC50 reported reflect the inflection point of the curve for curve fitting.
(§5) • Assay involving the TSQ cocktail (T: TNF; S: Smac mimetic; Q: Q-VD-OPh): TSQ treatment ensures that cells specifically undergo necroptotic cell death. TNF activates the TNF receptor, Smac mimetic directs the signal away from proinflammatory signaling and toward the RIPK1/RIPK3-mediated cell death pathways, and Q-VD-OPh ensures that the apoptotic response is blocked leaving only the programmed necrosis response. The compounds' activity (solution in DMSO) tested in this TSQ-induced assay was evaluated by determining the number of viable cells in culture by measuring the amount of ATP present as measured by CelltiterGlo. • Counter screen: In parallel, all compounds were tested for their ability to affect cell viability. The same U937 cells were treated with compound in DMSO without the TSQ cocktail. This counter screen enabled evaluation of off-target effects. In this case, cell viability was measured by CelltiterGlo.
Background: The purpose of a counterscreen is to sort out artefacts and off-target activity.

For test [4], the target named is human RIPK1 (Homo sapiens (Human), UniProt Q13546). In words: KINOMEscan binding assay, human RIPK1. The settings on record: equilibrium dissociation constant. A digest of the protocol:
as §1

Test [5] has as its system U937 human histiocytic leukemia cell line. Nature of the test: Inhibition of TSQ induced necroptosis in U937 cells (CellTitre-Glo). The settings on record: Homo sapiens, U-937, TSQ cocktail (TNF, Smac mimetic, Q-VD-OPh), 48 hours, read-out: Inhibition of TSQ-induced necroptosis (IC50 cell-based assay). On the procedure: Cellular Assay: Screening Compounds for Inhibition of TSQ Induced Necroptosis, 384 Well Plate Format.
as §2, §3
Percent viability was calculated for each compound according to equation (2): […]
as §4, §5

12 compounds from patent US20250059188A1, “ARYLSULPHONAMIDE COMPOUNDS” (Anaxis Pharma Pty Ltd, priority 2021, published 2025) can be followed below.

human RIPK1, sequence (Q13546 whole entry): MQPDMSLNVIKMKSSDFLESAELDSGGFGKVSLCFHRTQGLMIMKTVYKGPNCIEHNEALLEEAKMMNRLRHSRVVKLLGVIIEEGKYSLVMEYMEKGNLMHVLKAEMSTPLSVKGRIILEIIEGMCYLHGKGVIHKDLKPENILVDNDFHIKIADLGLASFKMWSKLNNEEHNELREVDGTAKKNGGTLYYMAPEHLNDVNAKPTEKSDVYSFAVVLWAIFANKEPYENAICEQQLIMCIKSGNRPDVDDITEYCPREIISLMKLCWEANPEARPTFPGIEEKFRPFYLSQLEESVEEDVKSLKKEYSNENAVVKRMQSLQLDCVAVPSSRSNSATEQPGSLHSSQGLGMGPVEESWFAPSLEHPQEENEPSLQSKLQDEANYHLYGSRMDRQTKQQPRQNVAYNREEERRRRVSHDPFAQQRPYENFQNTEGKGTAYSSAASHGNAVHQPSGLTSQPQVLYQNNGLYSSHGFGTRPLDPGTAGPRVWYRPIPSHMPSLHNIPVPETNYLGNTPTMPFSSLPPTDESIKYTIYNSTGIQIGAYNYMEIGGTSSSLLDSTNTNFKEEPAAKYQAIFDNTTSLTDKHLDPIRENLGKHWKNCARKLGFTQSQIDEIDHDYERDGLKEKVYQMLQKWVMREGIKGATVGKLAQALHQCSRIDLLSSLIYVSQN
human MLKL (full length), sequence (Q8NB16 whole entry): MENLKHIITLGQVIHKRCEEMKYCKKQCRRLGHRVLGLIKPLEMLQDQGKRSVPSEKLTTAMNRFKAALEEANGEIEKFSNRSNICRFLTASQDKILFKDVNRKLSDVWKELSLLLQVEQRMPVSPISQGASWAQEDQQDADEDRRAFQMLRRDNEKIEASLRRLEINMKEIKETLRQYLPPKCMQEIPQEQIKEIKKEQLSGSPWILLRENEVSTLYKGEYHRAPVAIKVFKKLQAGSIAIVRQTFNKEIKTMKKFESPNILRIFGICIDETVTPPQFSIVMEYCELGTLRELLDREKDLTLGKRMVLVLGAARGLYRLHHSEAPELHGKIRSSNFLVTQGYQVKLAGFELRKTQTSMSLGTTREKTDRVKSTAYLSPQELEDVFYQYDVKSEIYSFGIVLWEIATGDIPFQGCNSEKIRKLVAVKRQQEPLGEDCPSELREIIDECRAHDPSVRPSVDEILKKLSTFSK

As to `CC(C)n1cc(-c2cnc(N)c3c(-c4ccc(NS(=O)(=O)C(F)F)c(O[C@@H](C)c5ccc(F)cc5)c4)nn(C)c23)cn1` [Compound 31, (S)-N-(4-(4-amino-7-(1-isopropyl-1H-pyrazol-4-yl)-1-methyl-1H-pyrazolo[4,3-c]pyridin-3-yl)-2-(1-(4-fluorophenyl)ethoxy)phenyl)-1,1-difluoromethanesulfonamide], the Kd in test [1] is below 0.001 µM; in test [2], above 10 µM; in test [4] it was above 10 µM. Also, the IC50 in test [3] is above 10 µM; in test [5], below 0.01 µM.

As for `C[C@H](Oc1cc(-c2cnn3c(-c4cnn(C)c4)cnc(N)c23)ccc1NS(=O)(=O)C(F)F)c1ccc(F)cc1` [Compound 35, (S)-N-(4-(4-amino-7-(1-methyl-1H-pyrazol-4-yl)pyrazolo[1,5-a]pyrazin-3-yl)-2-(1-(4-fluorophenyl)ethoxy)phenyl)-1,1-difluoromethanesulfonamide], the Kd in test [1] is below 0.001 µM; in test [2], above 10 µM; in test [4], above 10 µM. The values for the IC50 in test [3] and in test [5] were above 10 µM and 0.01 to 1 µM, respectively.

For the compound `C[C@H](Oc1cc(-c2cnn3c(-c4cnn(C5CCOCC5)c4)cnc(N)c23)ccc1NS(=O)(=O)C(F)F)c1ccc(F)cc1` [Compound 36, (S)-N-(4-(4-amino-7-(1-(tetrahydro-2H-pyran-4-yl)-1H-pyrazol-4-yl)pyrazolo[1,5-a]pyrazin-3-yl)-2-(1-(4-fluorophenyl)ethoxy)phenyl)-1,1-difluoromethanesulfonamide], the Kd in test [1] was below 0.001 µM; in test [2], above 10 µM; in test [4] it was above 10 µM. Further, the results for the IC50 in test [3] and in test [5] were above 10 µM and below 0.01 µM, respectively.

With `C[C@H](Oc1cc(-c2cnn3c(-c4cnn(CCO)c4)cnc(N)c23)ccc1NS(=O)(=O)C(F)F)c1ccc(F)cc1` [Compound 37, (S)-N-(4-(4-amino-7-(1-(2-hydroxyethyl)-1H-pyrazol-4-yl)pyrazolo[1,5-a]pyrazin-3-yl)-2-(1-(4-fluorophenyl)ethoxy)phenyl)-1,1-difluoromethanesulfonamide], the Kd in test [1] is below 0.001 µM; in test [2] it was above 10 µM; in test [4], above 10 µM. The IC50 in test [3] is above 10 µM; in test [5], 0.01 to 1 µM.

Consider `C[C@H](Oc1cc(-c2nn(C)c3c(-c4cnn(C5COC5)c4)cnc(N)c23)ccc1NS(=O)(=O)C(F)F)c1ccc(F)cc1` [Compound 38, (S)-N-(4-(4-amino-1-methyl-7-(1-(oxetan-3-yl)-1H-pyrazol-4-yl)-1H-pyrazolo[4,3-c]pyridin-3-yl)-2-(1-(4-fluorophenyl)ethoxy)phenyl)-1,1-difluoromethanesulfonamide], for which the values for the Kd in test [1], in test [2] and in test [4] were below 0.001 µM, above 10 µM and above 10 µM, respectively. The figures for the IC50 in test [3] and in test [5] were above 10 µM and below 0.01 µM, respectively.

As to `C[C@H](Oc1cc(-c2cnn3c(-c4ccncc4)cnc(N)c23)ccc1NS(=O)(=O)C(F)F)c1ccc(F)cc1` [Compound 39, (S)-N-(4-(4-amino-7-(pyridin-4-yl)pyrazolo[1,5-a]pyrazin-3-yl)-2-(1-(4-fluorophenyl)ethoxy)phenyl)-1,1-difluoromethanesulfonamide], the values for the Kd in test [1], in test [2] and in test [4] were below 0.001 µM, above 10 µM and above 10 µM, respectively. For the same compound, the results for the IC50 in test [3] and in test [5] were above 10 µM and 0.01 to 1 µM, respectively.

Consider `C[C@H](Oc1cc(-c2nn(C)c3c(-c4ccncn4)cnc(N)c23)ccc1NS(=O)(=O)C(F)F)c1ccc(F)cc1` [Compound 40, (S)—N-(4-(4-amino-1-methyl-7-(pyrimidin-4-yl)-1H-pyrazolo[4,3-c]pyridin-3-yl)-2-(1-(4-fluorophenyl)ethoxy)phenyl)-1,1-difluoromethanesulfonamide], for which the Kd was below 0.001 µM in test [1], above 10 µM in test [2] and above 10 µM in test [4]. Besides, the IC50 in test [3] was above 10 µM; in test [5], below 0.01 µM.

`C[C@H](Oc1cc(-c2nn(C)c3c(-c4cnn(C5CCOC5)c4)cnc(N)c23)ccc1NS(=O)(=O)C(F)F)c1ccc(F)cc1` (stereo partly drawn) [Compound 41, N-(4-(4-amino-1-methyl-7-(1-(tetrahydrofuran-3-yl)-1H-pyrazol-4-yl)-1H-pyrazolo[4,3-c]pyridin-3-yl)-2-((S)-1-(4-fluorophenyl)ethoxy)phenyl)-1,1-difluoromethanesulfonamide]: the values for the dissociation constant Kd in test [1], in test [2] and in test [4] were below 0.001 µM, above 10 µM and above 10 µM, respectively. Further, the IC50 in test [3] was above 10 µM; in test [5], below 0.01 µM.

For `C[C@H](Oc1cc(-c2nn(C)c3c(C4CCN(C)CC4)cnc(N)c23)ccc1NS(=O)(=O)C(F)F)c1ccc(F)cc1` [Compound 42, (S)—N-(4-(4-amino-1-methyl-7-(1-methylpiperidin-4-yl)-1H-pyrazolo[4,3-c]pyridin-3-yl)-2-(1-(4-fluorophenyl)ethoxy)phenyl)-1,1-difluoromethanesulfonamide], the Kd is 0.1 to 10 µM in test [1], above 10 µM in test [2] and above 10 µM in test [4]. The values for the IC50 in test [3] and in test [5] were above 10 µM and 1 to 10 µM, respectively.

Regarding `C[C@H](Oc1cc(-c2nn(C)c3c(C4=CCOCC4)cnc(N)c23)ccc1NS(=O)(=O)C(F)F)c1ccc(F)cc1` [Compound 43, (S)-N-(4-(4-amino-7-(3,6-dihydro-2H-pyran-4-yl)-1-methyl-1H-pyrazolo[4,3-c]pyridin-3-yl)-2-(1-(4-fluorophenyl)ethoxy)phenyl)-1,1-difluoromethanesulfonamide], the values for the Kd in test [1], in test [2] and in test [4] were 0.001 to 0.1 µM, above 10 µM and above 10 µM, respectively. For the same compound, the IC50 in test [3] was above 10 µM; in test [5], 0.01 to 1 µM.

For `C[C@H](Oc1cc(-c2nn(C)c3c(-c4cnn(C5CCOCC5)c4)cnc(N)c23)ccc1NS(=O)(=O)CC(F)(F)F)c1ccc(F)cc1` [Compound 44, (S)—N-(4-(4-amino-1-methyl-7-(1-(tetrahydro-2H-pyran-4-yl)-1H-pyrazol-4-yl)-1H-pyrazolo[4,3-c]pyridin-3-yl)-2-(1-(4-fluorophenyl)ethoxy)phenyl)-2,2,2-trifluoroethane-1-sulfonamide], the Kd in test [1] was 0.001 to 0.1 µM; in test [2], above 10 µM; in test [4], above 10 µM. The figures for the IC50 in test [3] and in test [5] were above 10 µM and 0.01 to 1 µM, respectively.

As to `CCS(=O)(=O)Nc1ccc(-c2nn(C)c3c(-c4cnn(C5CCOCC5)c4)cnc(N)c23)cc1O[C@@H](C)c1ccc(F)cc1` [Compound 45, (S)-N-(4-(4-amino-1-methyl-7-(1-(tetrahydro-2H-pyran-4-yl)-1H-pyrazol-4-yl)-1H-pyrazolo[4,3-c]pyridin-3-yl)-2-(1-(4-fluorophenyl)ethoxy)phenyl)ethanesulfonamide], the values for the Kd in test [1], in test [2] and in test [4] were 0.001 to 0.1 µM, above 10 µM and above 10 µM, respectively. The IC50 in test [3] is above 10 µM; in test [5] it was 0.01 to 1 µM.

What is called Kd is the equilibrium constant for the complex coming apart. High values mean lower affinity, low ones higher affinity. By IC50 is commonly meant the point on the concentration scale where inhibition reaches its midpoint.
